Consider seven molecules from BindingDB's records for doi:10.1016/0922-4106(95)90043-8 (Uppsala, 1995).

Non-standard residues stand in square brackets, D forms with d. Residues, ends and D or L forms follow the SMILES beside them. Met(O2) = CS(=O)(=O)CC[C@H](N)C(=O)O

One assay has as its target Melanocortin receptor 3 (Homo sapiens, UniProt P41968).
For a further assay, the target named is Melanocortin receptor 5 (Homo sapiens, UniProt P33032).
Assay [1] has as its target Melanocyte-stimulating hormone receptor (Homo sapiens, UniProt Q01726).

Melanocyte-stimulating hormone receptor, sequence (Q01726 whole entry): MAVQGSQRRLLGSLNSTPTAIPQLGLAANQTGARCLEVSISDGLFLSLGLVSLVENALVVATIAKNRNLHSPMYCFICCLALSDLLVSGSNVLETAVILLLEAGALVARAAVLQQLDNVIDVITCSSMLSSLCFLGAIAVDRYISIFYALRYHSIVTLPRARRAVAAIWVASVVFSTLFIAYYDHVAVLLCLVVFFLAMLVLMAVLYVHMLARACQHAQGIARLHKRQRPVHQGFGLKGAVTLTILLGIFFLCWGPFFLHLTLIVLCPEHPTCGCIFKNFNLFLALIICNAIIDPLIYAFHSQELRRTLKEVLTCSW
Melanocortin receptor 5, sequence (P33032 whole entry): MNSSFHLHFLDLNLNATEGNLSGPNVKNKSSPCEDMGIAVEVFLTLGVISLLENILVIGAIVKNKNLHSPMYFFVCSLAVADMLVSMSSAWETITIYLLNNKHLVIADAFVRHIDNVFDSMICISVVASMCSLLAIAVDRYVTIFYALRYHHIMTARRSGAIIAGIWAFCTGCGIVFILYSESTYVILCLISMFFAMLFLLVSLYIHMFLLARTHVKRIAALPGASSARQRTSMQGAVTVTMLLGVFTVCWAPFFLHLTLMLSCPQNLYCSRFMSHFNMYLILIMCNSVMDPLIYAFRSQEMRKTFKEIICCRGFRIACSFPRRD
Melanocortin receptor 3, sequence (P41968 whole entry): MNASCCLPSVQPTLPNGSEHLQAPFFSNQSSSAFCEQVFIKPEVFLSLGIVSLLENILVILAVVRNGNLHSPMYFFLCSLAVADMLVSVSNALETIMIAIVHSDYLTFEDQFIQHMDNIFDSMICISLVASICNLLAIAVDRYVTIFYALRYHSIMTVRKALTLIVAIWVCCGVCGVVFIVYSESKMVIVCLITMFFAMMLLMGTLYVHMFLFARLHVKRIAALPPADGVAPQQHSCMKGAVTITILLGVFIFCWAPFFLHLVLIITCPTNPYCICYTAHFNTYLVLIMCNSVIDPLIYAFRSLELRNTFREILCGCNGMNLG

Consider `CSCC[C@H](NC(=O)[C@H](CO)NC(=O)[C@H](Cc1ccc(O)cc1)NC(=O)[C@@H](N)CO)C(=O)N[C@@H](CCC(=O)O)C(=O)N[C@@H](Cc1cnc[nH]1)C(=O)N[C@@H](Cc1ccccc1)C(=O)N[C@@H](CCCNC(=N)N)C(=O)N[C@@H](Cc1c[nH]c2ccccc12)C(=O)NCC(N)=O` [ACTH-(1-10)], for which the Ki (in general, the equilibrium dissociation constant of an inhibitor or competing ligand from its target) is 145 nM at Melanocortin receptor 3 and greater than 10000 nM at Melanocortin receptor 5.
On to `CS(=O)(=O)CC[C@H](N)C(=O)N[C@@H](CCC(=O)O)C(=O)N[C@@H](Cc1c[nH]cn1)C(=O)N[C@@H](Cc1ccccc1)C(=O)N[C@H](CCCCN)C(=O)N[C@@H](Cc1ccccc1)C(=O)O` [CAS_50913-82-1] (H-[Met(O2)]EHF[dK]F-OH), for which the Ki (on Melanocortin receptor 3; at Melanocortin receptor 5; in assay [1]) was greater than 10000 nM throughout.
For the molecule `CSCC[C@H](NC(=O)[C@@H](NC(=O)[C@@H](N)Cc1ccc(O)cc1)C(C)C)C(=O)NCC(=O)N[C@@H](Cc1cnc[nH]1)C(=O)N[C@@H](Cc1ccccc1)C(=O)N[C@@H](CCCN=C(N)N)C(=O)N[C@@H](Cc1c[nH]c2ccccc12)C(=O)N[C@@H](CC(=O)O)C(=O)N[C@@H](CCCN=C(N)N)C(=O)N[C@@H](Cc1ccccc1)C(N)=O` [Gamma1-MSH], the Ki in assay [1] is 2.68 nM.
As for `CSCC[C@H](N)C(=O)N[C@@H](CCC(=O)O)C(=O)N[C@@H](Cc1cnc[nH]1)C(=O)N[C@@H](Cc1ccccc1)C(=O)N[C@@H](CCCNC(=N)N)C(=O)N[C@@H](Cc1c[nH]c2ccccc12)C(=O)NCC(N)=O` [NSC_123787], the Ki is 784 nM at Melanocortin receptor 3, greater than 10000 nM at Melanocortin receptor 5 and 106 nM in assay [1].
Turning to H-SMEVRGW-OH [delta MSH], the Ki (at Melanocortin receptor 3; at Melanocortin receptor 5; in assay [1]) was greater than 10000 nM each time.
As to “H-SYSMEHFRWGKPVGKKRRPVKVYPNGAEDESAEAFPLEF-OH [ACTH]”, the Ki on Melanocortin receptor 3 was 86.9 nM; at Melanocortin receptor 5 it was greater than 10000 nM; in assay [1] it was 2.5 nM.
Take “H-YVMGHFRWDRFGRRNGSSSSGVGGAAQ-OH [Gamma3-MSH]”: the figures for the inhibitory constant (Ki) (on Melanocortin receptor 3; on Melanocortin receptor 5; in assay [1]) were 10.9 nM, greater than 10000 nM and 1.39 nM, respectively.
